From US9150577B2, “Heterocyclic compounds containing an indole core” (Boehringer Ingelheim International GmbH, priority 2009, dated 2015)

Biological target: Human RSK2 (Homo sapiens (Human), UniProt P51812)
Experiment: Human RSK2 assay (Kinase Glo Plus, residual ATP);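 note: recombinant human RSK2 phosphorylating a substrate peptide, 90 min at 28 °C, leftover ATP read by luminescence, RLU scaled between no-kinase background and uninhibited kinase controls, 4-parameter fit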
Type: biochemical

Chain of Human RSK2 (P51812 whole entry): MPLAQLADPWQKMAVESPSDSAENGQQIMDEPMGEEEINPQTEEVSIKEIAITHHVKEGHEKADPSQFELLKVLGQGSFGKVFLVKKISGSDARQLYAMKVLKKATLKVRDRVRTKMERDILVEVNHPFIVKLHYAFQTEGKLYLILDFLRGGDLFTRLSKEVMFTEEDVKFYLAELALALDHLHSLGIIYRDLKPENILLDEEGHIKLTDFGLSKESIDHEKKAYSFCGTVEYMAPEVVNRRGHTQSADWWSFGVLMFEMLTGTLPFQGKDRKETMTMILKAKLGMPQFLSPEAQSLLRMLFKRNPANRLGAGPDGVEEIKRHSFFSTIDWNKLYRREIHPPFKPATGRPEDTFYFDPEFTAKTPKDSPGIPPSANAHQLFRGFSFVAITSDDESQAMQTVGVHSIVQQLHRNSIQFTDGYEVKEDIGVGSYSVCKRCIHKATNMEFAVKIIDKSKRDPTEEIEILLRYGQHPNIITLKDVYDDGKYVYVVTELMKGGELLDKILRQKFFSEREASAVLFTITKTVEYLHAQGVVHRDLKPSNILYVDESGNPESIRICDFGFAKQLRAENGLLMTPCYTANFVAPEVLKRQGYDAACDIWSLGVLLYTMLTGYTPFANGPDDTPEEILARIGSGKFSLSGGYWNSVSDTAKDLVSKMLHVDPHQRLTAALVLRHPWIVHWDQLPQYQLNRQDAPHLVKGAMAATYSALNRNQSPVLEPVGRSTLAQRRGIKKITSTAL

Compared with `CN(C)c1cccc(Cn2cc(NC(=O)c3ccc4cc5n(c4c3)CCCNC5=O)cn2)c1` [Example 120, N-{1-[3-(dimethylamino)benzyl]-1H-pyrazol-4-yl}-1-oxo-2,3,4,5-tetrahydro-1H-[1,4]diazepino[1,2-a]indole-8-carboxamide], `CC1(C)CNC(=O)c2cc3ccc(C(=O)Nc4cnn(Cc5ccccc5)c4)cc3n2C1` [Example 122, N-(1-benzyl-1H-pyrazol-4-yl)-4,4-dimethyl-1-oxo-2,3,4,5-tetrahydro-1H-[1,4]diazepino[1,2-a]indole-8-carboxamide] is 29-fold higher in IC50: 3.8 nM for the first, 110 nM for the second. The first is the more potent here.

Compared with `C[C@H]1CNC(=O)c2cc3ccc(C(=O)Nc4cnn(Cc5ccccc5)c4)cc3n21` [Example 133, (4S)-N-(1-benzyl-1H-pyrazol-4-yl)-4-methyl-1-oxo-1,2,3,4-tetrahydropyrazino[1,2-a]indole-7-carboxamide], `C[C@H]1CNC(=O)c2cc3ccc(C(=O)Nc4cnn(Cc5ccccc5)c4)cc3n2[C@H]1C` (relative stereo) [Example 136, N-(1-benzyl-1H-pyrazol-4-yl)-cis-4,5-dimethyl-1-oxo-2,3,4,5-tetrahydro-1H-[1,4]diazepino[1,2-a]indole-8-carboxamide] is 1.9-fold lower in IC50: 17.5 nM for the first, 9.3 nM for the second.

Compared with `CC(C)(C)c1cnc(NC(=O)c2ccc3cc4n(c3c2)CCCNC4=O)o1` [Example 111, N-(5-tert-butyl-1,3-oxazol-2-yl)-1-oxo-2,3,4,5-tetrahydro-1H-[1,4]diazepino[1,2-a]indole-8-carboxamide], `COc1ccnc(NC(=O)c2ccc3cc4n(c3c2)CCCNC4=O)c1` [Example 206, N-(4-methoxypyridin-2-yl)-1-oxo-2,3,4,5-tetrahydro-1H-[1,4]diazepino[1,2-a]indole-8-carboxamide] is 19-fold lower in IC50: 1800 nM for the first, 96 nM for the second. The second is the more potent here.

Compared with `O=C(Nc1nc2cc(Cl)cc(CN3CCOCC3)c2[nH]1)c1ccc2cc3n(c2c1)CCCNC3=O` [Example 46, N-[5-chloro-7-(morpholin-4-ylmethyl)-1H-benzimidazol-2-yl]-1-oxo-2,3,4,5-tetrahydro-1H-[1,4]diazepino[1,2-a]indole-8-carboxamide], `O=C(Nc1nc2cc(F)ccc2[nH]1)c1ccc2cc3n(c2c1)CCCNC3=O` [Example 51, N-(5-fluoro-1H-benzimidazol-2-yl)-1-oxo-2,3,4,5-tetrahydro-1H-[1,4]diazepino[1,2-a]indole-8-carboxamide] is 1.7-fold lower in IC50: 8.7 nM for the first, 5.2 nM for the second. The second is the more potent here.

First: O=C(Nc1nc2cc(C(F)(F)F)ccc2[nH]1)c1ccc2cc3n(c2c1)CCCNC3=O [Example 43, 1-oxo-N-[5-(trifluoromethyl)-1H-benzimidazol-2-yl]-2,3,4,5-tetrahydro-1H-[1,4]diazepino[1,2-a]indole-8-carboxamide]
Second: O=C(Nc1ccn(-c2ccccc2)n1)c1ccc2cc3n(c2c1)CCCNC3=O [Example 14, 1-oxo-N-(1-phenyl-1H-pyrazol-3-yl)-2,3,4,5-tetrahydro-1H-[1,4]diazepino[1,2-a]indole-8-carboxamide]
The IC50 of the first is 4.5-fold lower: 24 nM for the first, 108 nM for the second.

First: CC1CNC(=O)c2cc3ccc(C(=O)Nc4cc(C(C)(C)C)on4)cc3n21 (stereo not shown) [Example 176, N-(5-tert-butyl-1,2-oxazol-3-yl)-4-methyl-1-oxo-1,2,3,4-tetrahydropyrazino[1,2-a]indole-7-carboxamide]
Second: CC(C)n1c(NC(=O)c2ccc3cc4n(c3c2)C(C)CNC4=O)nc2ccccc21 (stereo not shown) [Example 74, 4-methyl-1-oxo-N-[1-(propan-2-yl)-1H-benzimidazol-2-yl]-1,2,3,4-tetrahydropyrazino[1,2-a]indole-7-carboxamide]
The IC50 of the first is 3.4-fold higher: 25 nM for the first, 7.3 nM for the second.

Work on `O=C(Nc1cnn(Cc2ccccc2)c1)c1ccc2cc3n(c2c1)CC1(CCOCC1)CNC3=O` [Example 31, N-(1-benzyl-1H-pyrazol-4-yl)-1-oxo-2,2′,3,3′,5′,6′-hexahydro-1H-spiro[1,4-diazepino[1,2-a]indole-4,4′-pyran]-8-carboxamide] yielded an IC50 of 900 nM.
